{
  "source": "patent US12338263B2",
  "about": "“Antibacterial aminoglycoside derivatives” (priority 2019, dated 2025)",
  "key": {"[1]": {"system": "E. coli ATCC-25922 (Enterobacteria ATCC-25922)", "assay": "Drug efficacy in mice (mouse thigh muscle model)", "type": "in vivo", "conditions": "CD-1 mice, 30 mpk subcutaneously 2 h and 10 h after infection, read at 24 h; FIG. 1", "method": "12 female CD-1 mice were divided into 4 cages, 3 mice per cage, and were injected intraperitoneally with the immunosuppressant cyclophosphamide (150 mpk).\n24 hours later, 4 cages of mice were injected intraperitoneally again with the immunosuppressant cyclophosphamide (100 mpk). The strain E. coli ATCC-25922 (Enterobacteria ATCC-25922) was recovered on a MHA plate. The recovered colonies were picked and dissolved in saline to prepare E. coli ATCC-25922 bacterial solution with a concentration of 1.00E+07 CFU/mL for later use in mouse thigh muscle infection. The amount of bacterial solution injected into the thigh muscle of experimental mice was […], that is, the inoculation amount was 1.00E+06 CFU/mouse. […]\nThe specific administration of mice was as follows: • (1) 2 h after infection: At the end of 2 h infection, the thigh muscle tissue of the mice in the first cage was taken and placed in 10 mL saline, homogenized, and dotted on a plate with gradient dilution, two duplications for each mouse. The amount of bacteria loaded in the thigh muscle tissue of the mouse was counted. […] The amount of bacteria loaded in the thigh muscle tissue of the mouse was counted, and the experimental results were summarized and shown in FIG. 1."}, "[2]": {"system": "spiral ganglion neurons", "assay": "Auditory safety: density of spiral ganglion neurons", "type": "in vivo, guinea pigs", "conditions": "guinea pig, in vivo, sc, 100 mg/kg", "method": "Healthy adult guinea pigs (150-250 g) were employed as the research objects, and were randomly divided into saline control group, gentamicin group, compound Plazomicin group and Compound 1 group, with 8 animals in each group. Subcutaneous administration is used, and the following assays were carried out during and after the administration for 14 consecutive days: • 1. To analyze the effects of different drugs on the auditory function of guinea pigs, the compound action potential (CAP) of animals was recorded on the 14th day (29th day, i.e., 4 weeks) after administration. The results obtained were analyzed and the changes of the threshold shift, amplitude, latency and other indicators among different treatment groups were compared. • 2. After the different groups of animals were processed and the auditory function data thereof were collected, the cochlea of the animals was taken out for fixation and staining. Surface preparation of basilar membrane of the cochlea on one side was performed to count the loss of hair cells so as to make a cochlea map, and the cochlea on the other side was decalcified and frozen sectioned. The density of spiral ganglion neurons was counted and compared among groups. Research Results: 1. Administration Method and Treatment\nGentamicin from Dalian Meilun Biotechnology Co., Ltd., and Plazomicin and Compound 1 from WuXi AppTec (WuHan) Co., Ltd. are used, the solution of which were prepared just before use each time by using saline for dissolution to the concentration of 50 mg/mL, and the injection dose was 100 mg/kg body weight. Method: subcutaneous injection, and confirmation of no liquid leakage after each injection.\nThe cochlea of the guinea pig was defined as Turn 1, Turn 2, Turn 3, and Turn 4 from the basal to the apical turn. The spiral ganglion neurons (SGNs) were stained with TuJ on frozen sections, and the density thereof in a specific area were counted and compared between groups. […] Through the two-way ANOVA, there was a significant difference between the groups, F(3, 74)=35.43, p<0.0001 (see FIG. 7)."}, "[3]": {"system": "HK-2 cells", "assay": "Toxicity test on HK-2 cells (Alma Blue)", "type": "cell-based", "method": "(§1) On the day of the experiment, when the HK-2 cells in the culture flask reached 80%-90% confluent, the culture medium was discarded, the cells were washed twice with Dulbecco's phosphate buffered saline (DPBS) and digested for 1 to 2 minutes with 3 mL trypsin (T150 cell culture flask), and immediately 9 ml complete medium (RPMI1640+10% FBS) were added to terminate the digestion. After termination, single cells suspension were formed by pipetting gently, which were centrifuged at 1000 […] for 5 minutes. The supernatant was discarded, and fresh complete medium were added, and the cells were pipetted evenly. The actual cell density was measured according to the cell counter and the cell suspension was adjusted to 2.5×10^5 cells/mL. 80 μL of cell suspension was drawn by a row pipettor and added into a 96-well black bottom plate (2×10^4 cell/well), and then incubated in a carbon dioxide incubator for 4.5 hours, which was defined as a cell plate.\n(§2) • a. The compound mother liquor was prepared according to the following table, with complete medium as the solvent;\n(§3) • b. 50 microliters of complete medium was added into columns 3-11 in the 96-v well plate; • c. 75 microliters of test compound (50 mg/mL) and positive control were added to the second column of the 96-v well plate; • d. 25 microliters of compound was drawn from the second column and added into the third column, blown and sucked a few times by a row pipettor, then 25 microliters of liquid was drawn from the third column and added to the fourth column, and subsequently subjected to a 3-fold series dilution until the 10th column. From column 2 to column 11, the compound concentration was 50, 16.67, 5.56, 1.85, 0.62, 0.21, 0.07, 0.02, 0.008, 0 mg/mL; • e. 20 μL compound solutions of various concentrations prepared were transferred by a row pipettor to the corresponding wells of the cell plate, which was defined as a testing plate. Culture of the Testing Plate:\n(§4) All the plates were incubated in an incubator at 37° C., 5% CO2 for 43 hours.\n(§5) After incubation, 10 microliters of Alma Blue was added to the testing plate. The testing plate was immediately incubated in an incubator at 37° C., 5% CO2 for 3 hours. Then the fluorescence value of each well of the testing plate was read by a microplate reader (wavelength Ex 540 nm/Em 585 nm). Then prism software was used to simulate the curve to calculate CC50 value."}, "[4]": {"assay": "Toxicity test on HK-2 cells (Alma Blue)", "type": "cell-based", "conditions": "human, 43 hours incubation plus 3 hours Alma Blue, read-out: CC50 of HK-2 cell", "method": "as §1, §2, §3, §4, §5"}},
  "data": [
    {"smiles": "CN[C@@H]1[C@@H](O)[C@@H](O[C@@H]2[C@@H](O)[C@H](O[C@H]3OC(CNCCOCCONC(=N)N)=CC[C@H]3N)[C@@H](N)C[C@H]2NC(=O)[C@@H](O)CCN)OC[C@]1(C)O", "note": "[Compound 1]", "values": [
      {"measurement": "in vivo efficacy (bacteria loaded in thigh muscle tissue), compared with Plazomicin", "setting": "[1]", "result": "better in vivo efficacy than Plazomicin"},
      {"measurement": "damage to spiral ganglion neurons (SGN density vs Control group)", "setting": "[2]", "result": "no damage to spiral ganglion neurons"},
      {"measurement": "toxicity to HK-2 cells compared with Netilmicin and Amikacin", "setting": "[3]", "result": "significantly lower than that of Netilmicin and Amikacin"},
      {"measurement": "Maximum inhibition rate", "setting": "[3]; 43 hours incubation plus 3 hours Alma Blue", "result": 21.96, "unit": "%"},
      {"measurement": "toxicity to HK-2 cells compared with Plazomicin", "setting": "[3]; toxicity regression curve and software prediction (FIG. 8-11)", "result": "lower than Plazomicin"},
      {"measurement": "CC50 at 43 h", "setting": "[4]", "result": "> 10000", "unit": "µg/mL"}
    ]}
  ]
}
